Laboratory results taken from patent EP4692062A1, “NOVEL AMIDE-BASED COMPOUND AND COMPOSITION COMPRISING SAME” (Amorepacific Corporation, priority 2023, dated 2024).

Experiments:
Format in all cases: biochemical
MMP-2 [1] = target: T1, MMP-2 (Homo sapiens, UniProt P08253); assay: MMP2 Inhibitor Screening Assay Kit (ab139446), colorimetric thiopeptide substrate, OD412; details: T-23~34 at 0.5 uM; for inhibition at 0.5 µM: read-out: MMP-2 (%) (inhibitory efficacy, high concentration); for remaining activity at 0.5 µM: remaining enzyme activity, read-out: MMP-2 (%) (enzyme activity, high concentration)
T1 construct: purchased Abchem (so in the source)
T1 sequence (P08253 110-660): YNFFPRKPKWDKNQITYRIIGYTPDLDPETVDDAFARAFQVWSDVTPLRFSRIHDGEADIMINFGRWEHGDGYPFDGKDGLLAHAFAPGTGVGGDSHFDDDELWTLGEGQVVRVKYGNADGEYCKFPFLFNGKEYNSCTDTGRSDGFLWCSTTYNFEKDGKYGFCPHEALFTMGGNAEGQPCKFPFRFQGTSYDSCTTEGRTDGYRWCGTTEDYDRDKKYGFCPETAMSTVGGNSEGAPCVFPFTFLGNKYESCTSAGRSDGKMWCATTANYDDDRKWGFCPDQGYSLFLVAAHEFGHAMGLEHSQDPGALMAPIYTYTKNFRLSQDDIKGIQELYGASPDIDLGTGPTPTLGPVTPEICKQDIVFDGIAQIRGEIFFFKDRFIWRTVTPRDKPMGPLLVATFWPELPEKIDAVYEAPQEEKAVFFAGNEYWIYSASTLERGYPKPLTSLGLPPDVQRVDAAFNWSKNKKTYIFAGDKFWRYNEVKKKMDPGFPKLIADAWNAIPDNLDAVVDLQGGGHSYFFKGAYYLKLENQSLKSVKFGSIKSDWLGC

MMP-1 = target: T2, MMP-1 (Homo sapiens, UniProt P03956); assay: MMP1 Inhibitor Screening Assay Kit (ab139443), colorimetric thiopeptide substrate, OD412; details: for inhibition at 5 µM / remaining activity at 5 µM: T-23~34 at 5 uM; for inhibition at 5 µM: read-out: MMP-1 (%) (inhibitory efficacy, high concentration); for remaining activity at 0.5 µM / remaining activity at 5 µM: remaining enzyme activity; for remaining activity at 0.5 µM: untreated group = 100%, n=2; for remaining activity at 5 µM: read-out: MMP-1 (%) (enzyme activity, high concentration)
T2 construct: purchased Abchem (so in the source)
T2 sequence (P03956 100-269 limits assumed): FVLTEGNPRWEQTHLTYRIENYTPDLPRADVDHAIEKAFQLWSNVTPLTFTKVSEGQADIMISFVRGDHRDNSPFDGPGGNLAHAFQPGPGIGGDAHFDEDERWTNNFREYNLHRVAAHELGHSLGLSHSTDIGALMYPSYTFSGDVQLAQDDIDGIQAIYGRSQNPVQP
Description: Enzyme activity (%) at the same concentration was compared with treatment with 0.5 µM MMP-1 activity and 50 nM MMP-2 and MMP-9 activity (n=2). Here, enzyme activity (%) refers to the enzyme activity (%) of the experimental group when the untreated group is considered to have 100% enzyme activity.
To evaluate the effect of the new compound on the enzyme activity, the color change was measured by following the provided protocol using a kit sold by Abchem as follows.
As MMP activity increases, the substrate is decomposed and the OD412 level increases. Therefore, the change in OD412 level (OD value) per minute was measured and the value was obtained according to the enzyme activity calculation formula below. […] (ε=13,600 M^-1cm^-1 above pH 6.0)
New compound enzyme activity(%) = (Vnew compound/Vuntreated group)*100 [formula] V = change in OD value per minute

MMP-9 [2] = target: T3, MMP-9 (Homo sapiens, UniProt P14780); assay: MMP9 Inhibitor Screening Assay Kit (ab139448), colorimetric thiopeptide substrate, OD412; details: T-23~34 at 0.5 uM; for inhibition at 0.5 µM: read-out: MMP-9 (%) (inhibitory efficacy, high concentration); for remaining activity at 0.5 µM: remaining enzyme activity, read-out: MMP-9 (%) (enzyme activity, high concentration)
T3 construct: purchased Abchem (so in the source)
T3 sequence (P14780 94-707): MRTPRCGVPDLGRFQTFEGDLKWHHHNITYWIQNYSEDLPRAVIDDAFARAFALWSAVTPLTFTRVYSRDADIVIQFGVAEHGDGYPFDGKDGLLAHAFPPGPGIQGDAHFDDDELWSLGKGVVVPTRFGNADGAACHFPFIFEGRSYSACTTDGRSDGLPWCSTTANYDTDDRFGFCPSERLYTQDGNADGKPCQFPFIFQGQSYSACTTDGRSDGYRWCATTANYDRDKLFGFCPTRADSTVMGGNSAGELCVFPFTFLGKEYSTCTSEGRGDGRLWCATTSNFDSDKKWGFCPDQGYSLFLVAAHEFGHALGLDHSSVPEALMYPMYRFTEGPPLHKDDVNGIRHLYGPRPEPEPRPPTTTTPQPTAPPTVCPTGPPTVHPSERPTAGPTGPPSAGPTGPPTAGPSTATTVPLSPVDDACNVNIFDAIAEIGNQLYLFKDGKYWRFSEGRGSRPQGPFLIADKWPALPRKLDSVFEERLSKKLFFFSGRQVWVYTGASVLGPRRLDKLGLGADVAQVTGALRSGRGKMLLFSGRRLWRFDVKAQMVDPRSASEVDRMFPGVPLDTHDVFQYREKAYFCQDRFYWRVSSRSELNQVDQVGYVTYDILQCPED

MMP-9 [3] = target: T3, MMP-9; assay: as above; details: compound at 50 nM; for remaining activity at 0.05 µM: remaining enzyme activity, untreated group = 100%, n=2
Description: Enzyme activity (%) at the same concentration was compared with treatment with 0.5 µM MMP-1 activity and 50 nM MMP-2 and MMP-9 activity (n=2). Here, enzyme activity (%) refers to the enzyme activity (%) of the experimental group when the untreated group is considered to have 100% enzyme activity. To evaluate the effect of the new compound on the enzyme activity, the color change was measured by following the provided protocol using a kit sold by Abchem as follows. Enzyme activity was obtained by comparing absorbance per minute with the untreated group. • MMP1 Inhibitor Screening Assay Kit (ab139443) • MMP2 Inhibitor Screening Assay Kit (ab139446) • MMP9 Inhibitor Screening Assay Kit (ab139448) As MMP activity increases, the substrate is decomposed and the OD412 level increases. Therefore, the change in OD412 level (OD value) per minute was measured and the value was obtained according to the enzyme activity calculation formula below. Here, OD412 means optical density or absorbance at 412 nm. • Thiopeptide (Ac-PLG-[2-mercapto-4-methyl-pentanoyl]-LG-OC2H5) as a chromogenic substrate. • The MMP cleavage site peptide bond was replaced by the thioester bond of the thiopeptide. • Hydrolysis of this bond by MMP generates a sulfhydryl group, which reacts with DTNB [5,5'-dithiobis(2-nitrobenzoic acid), Ellman's reagent] to form 2-nitro-5-thiobenzoic acid. , which can be measured by its absorbance at 412 nm. (ε=13,600 M^-1cm^-1 above pH 6.0) New compound enzyme activity(%) = (Vnew compound/Vuntreated group)*100 [formula] V = change in OD value per minute

MMP-2 [4] = target: T1, MMP-2; assay: MMP2 Inhibitor Screening Assay Kit (ab139446), colorimetric thiopeptide substrate, OD412; details: compound at 50 nM; for remaining activity at 0.05 µM: remaining enzyme activity, untreated group = 100%, n=2
Description: Enzyme activity (%) at the same concentration was compared with treatment with 0.5 µM MMP-1 activity and 50 nM MMP-2 and MMP-9 activity (n=2). Here, enzyme activity (%) refers to the enzyme activity (%) of the experimental group when the untreated group is considered to have 100% enzyme activity. To evaluate the effect of the new compound on the enzyme activity, the color change was measured by following the provided protocol using a kit sold by Abchem as follows. […] Therefore, the change in OD412 level (OD value) per minute was measured and the value was obtained according to the enzyme activity calculation formula below. […] (ε=13,600 M^-1cm^-1 above pH 6.0) New compound enzyme activity(%) = (Vnew compound/Vuntreated group)*100 [formula] V = change in OD value per minute

Row | inhibition at 0.5 µM (MMP-2 [1]) [%] | remaining activity at 0.5 µM (MMP-2 [1]) [%] | inhibition at 5 µM (MMP-1; inhibition) [%] | remaining activity at 0.5 µM (MMP-1; compound at 0.5 uM) [%] | remaining activity at 5 µM (MMP-1) [%] | inhibition at 0.5 µM (MMP-9 [2]) [%] | remaining activity at 0.5 µM (MMP-9 [2]) [%] | remaining activity at 0.05 µM (MMP-9 [3]) [%] | remaining activity at 0.05 µM (MMP-2 [4]) [%] | inhibition at 0.5 µM (MMP-1; inhibition, compound at 0.5 uM, read-out: MMP-1 (%) at 0.5 uM (inhibitory activity)) [%] | inhibition at 0.05 µM (MMP-2 [4]; inhibition, read-out: MMP-2 (%) at 50 nM (inhibitory activity)) [%] | inhibition at 0.05 µM (MMP-9 [3]; inhibition, read-out: MMP-9 (%) at 50 nM (inhibitory activity)) [%] | SMILES
1 | 0 | 100 | 0 | 100 | 100 | 0 | 100 | 100 | 100 |  |  |  | O=C(NO)C1CCCCN1S(=O)(=O)c1ccc(C23CC4CC(CC(C4)C2)C3)cc1 (stereo not drawn) [T-23, 1-((4-((3r,5r,7r)-adamantan-1-yl)phenyl)sulfonyl)-N-hydroxypiperidine-2-carboxamide]
2 | 38.3 | 61.7 | 14.2 | 100 | 85.8 | 20.6 | 79.4 | 100 | 100 | 0 | 0 |  | CC(=O)Nc1ccc(S(=O)(=O)N2CCCCC2C(=O)NO)cc1 (stereo not drawn) [T-25, 1-((4-acetamidophenyl)sulfonyl)-N-hydroxypiperidine-2-carboxamide]
3 | 0 | 100 | 0 | 100 | 100 | 0 | 100 | 100 | 100 |  |  |  | CC(C)(C)c1ccc(S(=O)(=O)N2CCCC2C(=O)NO)cc1 (stereo not drawn) [T-28, 1-((4-(tert-butyl)phenyl)sulfonyl)-N-hydroxypyrrolidine-2-carboxamide]
4 | 7.6 | 92.4 | 0 | 100 | 100 | 11.9 | 88.1 | 100 | 100 |  |  |  | O=C(NO)C1CCCN1S(=O)(=O)c1ccc(C23CC4CC(CC(C4)C2)C3)cc1 (stereo not drawn) [T-32, 1-((4-((3r,5r,7r)-adamantan-1-yl)phenyl)sulfonyl)-N-hydroxypyrrolidine-2-carboxamide]
5 | 26.3 | 73.7 | 26.1 | 100 | 73.9 | 22.2 | 77.8 | 100 | 90.5 |  |  | 0 | CCCc1ccc(S(=O)(=O)N2CCCC2C(=O)NO)cc1 (stereo not drawn) [T-33, N-hydroxy-1-((4-propylphenyl)sulfonyl)pyrrolidine-2-carboxamide]
6 | 37.8 | 62.2 | 58.2 | 100 | 41.8 | 30.1 | 69.9 | 100 | 100 |  |  |  | CC(=O)c1ccc(S(=O)(=O)N2CCCC2C(=O)NO)cc1 (stereo not drawn) [T-34, 1-((4-acetylphenyl)sulfonyl)-N-hydroxypyrrolidine-2-carboxamide]
